Assay results published in patent US20260327263A1, “Anti-Bacterial Peptides” (priority 2023, published 2026).
≈ marks a conversion by molar mass, not a printed value. Where a SMILES comes first, the peptide text is derived from it. Where no end group is shown, it is not given here. [ ]: non-standard residue; d: D form. Bip = N[C@@H](Cc1ccc(-c2ccccc2)cc1)C(=O)O; 1Nal = N[C@@H](Cc1cccc2ccccc12)C(=O)O; 2Nal = N[C@@H](Cc1ccc2ccccc2c1)C(=O)O; Aib = CC(C)(N)C(=O)O

Key:
[1] = test system: Pseudomonas aeruginosa (PA); assay: Broth microdilution anti-bacterial assay (CLSI), Pseudomonas aeruginosa; assay type: cell-based, Pseudomonas aeruginosa (ATCC 14213); details: for anti-bacterial activity (in words): PA and SA; for MIC / MBC: PA; for MIC: overnight, 37° C., ≥99% inhibition; for MBC: ≥99% killing
Protocol: (§1) To evaluate their anti-bacterial potency, broth microdilution method as per the CLSI guidelines 1 was used. […] The anti-bacterial potency of the tested agents is quantified using minimum inhibitory concentration (MIC) and minimum bactericidal concentration (MBC). […] To obtain the MBC data, 1X, 2X and 4× MIC of the peptide variants were plated to obtain the number of viable colonies compared to the original inoculum.
(§2) Pseudomonas aeruginosa (ATCC 14213, PA), and methicillin resistant Staphylococcus aureus (BAA1717-USA 300, SA) were obtained from The American Type Culture Collection (ATCC).
(§3) Examination of the potency of modified short peptides against PA and SA strains was performed by using the broth microdilution protocol from the Clinical and Laboratory Standards Institute (CLSI) guidelines (CLSI 2012) as described. Briefly, five freshly plated bacteria colonies were grown in cation adjusted MH2 broth (BD Biosciences) in a shaker incubator at 37° C., 220 RPM. Cells were grown to an optical density (OD600) of ~0.2 measured using a Microplate Spectrophotometer (Molecular Devices Spectra Max Plus). 100 μL of microbial culture containing ~5×10^5 CFU/mL of bacteria in the respective broths were introduced into each well containing 100 μL of peptides and incubated overnight at 37° C. Next, to check the bactericidal effects, 100 μL from each well was transferred and spread on sterile MH2 agar plates. The plates were incubated overnight at 37° C. and the number of colonies forming units (CFU) were calculated the following day. Readings of bacteria grown in media without any treatments were normalized to 100% as media control. For the mixed infection study, three freshly plated bacteria colonies each from PA, SA and ST plates were grown together in cation adjusted MH2 broth and proceeded as described above.

[2] = test system: Staphylococcus aureus (SA); assay: Broth microdilution anti-bacterial assay (CLSI), Staphylococcus aureus; assay type: cell-based; details: SA; for MIC: overnight, 37° C., ≥99% inhibition; for MBC: ≥99% killing
Protocol: as §1, §2, §3

Compound | anti-bacterial activity (in words) [1] | MIC [1] [µM] | MBC [1] [µM] | MIC [2] [µM] | MBC [2] [µM]
CC(C)C[C@@H](NC(=O)[C@@H](CO)NC(=O)[C@@H](CC(C)C)NC(=O)[C@@H](C)NC(=O)[C@@H](CC(C)C)NC(=O)[C@@H](CCCCN)NC(=O)[C@@H](CC(C)C)NC(=O)[C@@H](C)NC(=O)[C@@H](CCCCN)NC(=O)[C@@H](CCCCN)NC(=O)[C@@H](CO)NC(=O)[C@@H](CC(C)C)NC(=O)[C@@H](CCCCN)NC(=O)[C@@H](CC(C)C)NC(=O)[C@@H](Cc1c[nH]c2ccccc12)NC(=O)[C@@H](CCCCN)NC(=O)[C@@H](CCCCN)NC(=O)[C@@H](CC(C)C)NC(=O)[C@@H](CC(C)C)NC(=O)[C@@H](CCCCN)NC(=O)[C@H](N)CCCCN)C(N)=O [D-V8LQ19L] (H-[dK][dK][dL][dL][dK][dK][dW][dL][dK][dL][dS][dK][dK][dA][dL][dK][dL][dA][dL][dS][dL]-NH2) | retains the strong anti-bacterial effects | 3.125 (≈ 7.66 µg/mL) | 3.125 (≈ 7.66 µg/mL) | 3.125 (≈ 7.66 µg/mL) | 3.125 (≈ 7.66 µg/mL)
CC(C)C[C@H](NC(=O)[C@H](CO)NC(=O)[C@H](CC(C)C)NC(=O)[C@H](C)NC(=O)[C@H](CC(C)C)NC(=O)[C@H](CCCCN)NC(=O)[C@H](CC(C)C)NC(=O)C(C)(C)NC(=O)[C@H](CCCCN)NC(=O)[C@H](CCCCN)NC(=O)[C@H](CO)NC(=O)[C@H](CC(C)C)NC(=O)[C@H](CCCCN)NC(=O)[C@H](CC(C)C)NC(=O)[C@H](Cc1c[nH]c2ccccc12)NC(=O)[C@H](CCCCN)NC(=O)[C@H](CCCCN)NC(=O)[C@H](CC(C)C)NC(=O)[C@H](CC(C)C)NC(=O)[C@H](CCCCN)NC(=O)[C@@H](N)CCCCN)C(N)=O [V8LQ19LA14Aib] (H-KKLLKKWLKLSKK[Aib]LKLALSL-NH2) |  | 3.126 (≈ 7.7 µg/mL) | 6.25 (≈ 15.4 µg/mL) | 3.125 (≈ 7.7 µg/mL) | 6.25 (≈ 15.4 µg/mL)
CC(C)C[C@H](NC(=O)[C@H](CO)NC(=O)[C@H](CC(C)C)NC(=O)C(C)(C)NC(=O)[C@H](CC(C)C)NC(=O)[C@H](CCCCN)NC(=O)[C@H](CC(C)C)NC(=O)[C@H](C)NC(=O)[C@H](CCCCN)NC(=O)[C@H](CCCCN)NC(=O)[C@H](CO)NC(=O)[C@H](CC(C)C)NC(=O)[C@H](CCCCN)NC(=O)[C@H](CC(C)C)NC(=O)[C@H](Cc1c[nH]c2ccccc12)NC(=O)[C@H](CCCCN)NC(=O)[C@H](CCCCN)NC(=O)[C@H](CC(C)C)NC(=O)[C@H](CC(C)C)NC(=O)[C@H](CCCCN)NC(=O)[C@@H](N)CCCCN)C(N)=O [V8LQ19LA18Aib] (H-KKLLKKWLKLSKKALKL[Aib]LSL-NH2) |  | 3.125 (≈ 7.7 µg/mL) | 3.125 (≈ 7.7 µg/mL) | 1.58 (≈ 3.89 µg/mL) | 1.56 (≈ 3.84 µg/mL)
CC(C)C[C@H](NC(=O)[C@H](CO)NC(=O)[C@H](CC(C)C)NC(=O)C(C)(C)NC(=O)[C@H](CC(C)C)NC(=O)[C@H](CCCCN)NC(=O)[C@H](CC(C)C)NC(=O)C(C)(C)NC(=O)[C@H](CCCCN)NC(=O)[C@H](CCCCN)NC(=O)[C@H](CO)NC(=O)[C@H](CC(C)C)NC(=O)[C@H](CCCCN)NC(=O)[C@H](CC(C)C)NC(=O)[C@H](Cc1c[nH]c2ccccc12)NC(=O)[C@H](CCCCN)NC(=O)[C@H](CCCCN)NC(=O)[C@H](CC(C)C)NC(=O)[C@H](CC(C)C)NC(=O)[C@H](CCCCN)NC(=O)[C@@H](N)CCCCN)C(N)=O [V8LQ19LA1418Aib] (H-KKLLKKWLKLSKK[Aib]LKL[Aib]LSL-NH2) |  | 3.126 (≈ 7.75 µg/mL) | 3.125 (≈ 7.74 µg/mL) | 1.56 (≈ 3.87 µg/mL) | 1.56 (≈ 3.87 µg/mL)
CC(C)C[C@H](NC(=O)[C@H](CO)NC(=O)[C@H](CC(C)C)NC(=O)[C@H](C)NC(=O)[C@H](CC(C)C)NC(=O)[C@H](CCCCN)NC(=O)[C@H](CC(C)C)NC(=O)[C@H](C)NC(=O)[C@H](CCCCN)NC(=O)[C@H](CCCCN)NC(=O)[C@H](CO)NC(=O)[C@H](CC(C)C)NC(=O)[C@H](CCCCN)NC(=O)[C@H](CC(C)C)NC(=O)[C@H](Cc1ccc(-c2ccccc2)cc1)NC(=O)[C@H](CCCCN)NC(=O)[C@H](CCCCN)NC(=O)[C@H](CC(C)C)NC(=O)[C@H](CC(C)C)NC(=O)[C@H](CCCCN)NC(=O)[C@@H](N)CCCCN)C(N)=O [W7BipV8LQ19L] (H-KKLLKK[Bip]LKLSKKALKLALSL-NH2) |  | 3.325 (≈ 8.27 µg/mL) | 3.125 (≈ 7.77 µg/mL) | 1.58 (≈ 3.93 µg/mL) | 1.56 (≈ 3.88 µg/mL)
CC(C)C[C@H](NC(=O)[C@H](CO)NC(=O)[C@H](CC(C)C)NC(=O)[C@H](C)NC(=O)[C@H](CC(C)C)NC(=O)[C@H](CCCCN)NC(=O)[C@H](CC(C)C)NC(=O)[C@H](C)NC(=O)[C@H](CCCCN)NC(=O)[C@H](CCCCN)NC(=O)[C@H](CO)NC(=O)[C@H](CC(C)C)NC(=O)[C@H](CCCCN)NC(=O)[C@H](CC(C)C)NC(=O)[C@H](Cc1cccc2ccccc12)NC(=O)[C@H](CCCCN)NC(=O)[C@H](CCCCN)NC(=O)[C@H](CC(C)C)NC(=O)[C@H](CC(C)C)NC(=O)[C@H](CCCCN)NC(=O)[C@@H](N)CCCCN)C(N)=O [W71NalV8LQ19L] (H-KKLLKK[1Nal]LKLSKKALKLALSL-NH2) |  | 3.125 (≈ 7.69 µg/mL) | 3.125 (≈ 7.69 µg/mL) | 1.56 (≈ 3.84 µg/mL) | 1.56 (≈ 3.84 µg/mL)
CC(C)C[C@H](NC(=O)[C@H](CO)NC(=O)[C@H](CC(C)C)NC(=O)[C@H](C)NC(=O)[C@H](CC(C)C)NC(=O)[C@H](CCCCN)NC(=O)[C@H](CC(C)C)NC(=O)[C@H](C)NC(=O)[C@H](CCCCN)NC(=O)[C@H](CCCCN)NC(=O)[C@H](CO)NC(=O)[C@H](CC(C)C)NC(=O)[C@H](CCCCN)NC(=O)[C@H](CC(C)C)NC(=O)[C@H](Cc1ccc2ccccc2c1)NC(=O)[C@H](CCCCN)NC(=O)[C@H](CCCCN)NC(=O)[C@H](CC(C)C)NC(=O)[C@H](CC(C)C)NC(=O)[C@H](CCCCN)NC(=O)[C@@H](N)CCCCN)C(N)=O [W72NalV8LQ19L] (H-KKLLKK[2Nal]LKLSKKALKLALSL-NH2) |  | 1.56 (≈ 3.84 µg/mL) | 1.66 (≈ 4.09 µg/mL) | 1.56 (≈ 3.84 µg/mL) | 1.56 (≈ 3.84 µg/mL)
Ac-KKLLKKWVKLSKKALKLAQSL [Ac-E1AM2] |  | 25 | 25 |  | 
Ac-KKLLKKWVKLSKKALKLAQSL-NH2 [Ac-E1AM2-NH2] |  | 12.5 | 12.5 |  | 
KKLLKKKVKLSKKALKLAQSL-NH2 [W7K] |  | 12.5 | 12.5 | 12.5 | 25
KKLLKKLLKLSKKALKLALSL-NH2 [W7LV8LQ19L] |  | 3.125 | 3.125 | 1.58 | 1.58
KKLLKKLVKLSKKALKLAQSL-NH2 [W7L] | reduced MIC against PA | 3.125 | 3.125 | 6.25 | 6.25
KKLLKKWVKLSKKAL-NH2 [E1AM2 C-6] |  | >25 |  |  | 
KKLLKKWVKLSKKALK-NH2 [E1AM2 C-5] |  | >25 |  |  | 
KKLLKKWVKLSKKALKL-NH2 [E1AM2 C-4] |  | >12.5 |  |  | 
KKLLKKWVKLSKKALKLA-NH2 [E1AM2 C-3] |  | 6.25 |  |  | 
KKLLKKWVKLSKKALKLAQ-NH2 [E1AM2 C-2] |  | 25 |  |  | 
KKLLKKWVKLSKKALKLAQS-NH2 [E1AM2 C-1] |  | >25 |  |  | 
KKWVKLSKKALKLAQSL-NH2 [E1AM2 N-4] |  | >25 |  |  | 
KLLKKWVKLSKKALKLAQSL-NH2 [E1AM2 N-1] |  | 12.5 |  |  | 
KWVKLSKKALKLAQSL-NH2 [E1AM2 N-5] |  | >25 |  |  | 
LKKWVKLSKKALKLAQSL-NH2 [E1AM2 N-3] |  | 12.5 |  |  | 
LLKKWVKLSKKALKLAQSL-NH2 [E1AM2 N-2] |  | 25 |  |  | 
WVKLSKKALKLAQSL-NH2 [E1AM2 N-6] |  | >25 |  |  | 
